Measurements as given in PubChem BioAssay AID256 (DTP/NCI, 2004).
Where “and” joins values, the source holds several entries; their conditions need not be identical. Equal entries are not always repeated. Inconclusive results and toxic doses are left out. The calls were made as follows: active = survival T/C of 150% or more; inactive = T/C below 125% in these data.

System: CD2F1 mice, L1210 leukemia ip, survival T/C
Test: NCI In Vivo Anticancer Drug Screen. Data for tumor model L1210 Leukemia (intraperitoneal) in CD2F1 (CDF1) mice
Conditions: higher = longer survival
Summary of the method: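 In this screen, transplantable tumors were grown in mice given either the compound or its vehicle. Results were expressed as the treated measurement relative to the control measurement.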

Measured: T/C

Nc1nc(=O)n(C2OC(CO)C(O)C2O)cc1F (stereo not drawn)
active: endpoint: mean survival time, dose: 1.0 mg/kg/injection, schedule: Q03HX024 (ip), vehicle: saline 346 % of control | endpoint: mean survival time, dose: 4.0 mg/kg/injection, schedule: Q01DX009 (ip), vehicle: saline 157 % of control | endpoint: mean survival time, dose: 8.0 mg/kg/injection, schedule: Q01DX009 (sc), vehicle: saline 152 % of control | endpoint: mean survival time, dose: 8.0 mg/kg/injection, schedule: Q03HX024 (ip), vehicle: saline 540 % of control | endpoint: mean survival time, dose: 12.5 mg/kg/injection, schedule: Q01DX009 (ip), vehicle: saline 218 % of control and 227 % of control | endpoint: mean survival time, dose: 16.0 mg/kg/injection, schedule: Q01DX009 (ip), vehicle: saline 186 % of control and 194 % of control | endpoint: mean survival time, dose: 16.0 mg/kg/injection, schedule: Q03HX016 (ip), vehicle: saline 248 % of control | endpoint: mean survival time, dose: 16.0 mg/kg/injection, schedule: Q03HX024 (oral), vehicle: saline 327 % of control | endpoint: mean survival time, dose: 18.8 mg/kg/injection, schedule: Q01DX008 (ip), vehicle: saline 189 % of control | endpoint: mean survival time, dose: 18.8 mg/kg/injection, schedule: Q01DX008 (oral), vehicle: saline 167 % of control | endpoint: mean survival time, dose: 20.0 mg/kg/injection, schedule: Q01DX007 (ip), vehicle: saline 195 % of control | endpoint: mean survival time, dose: 20.0 mg/kg/injection, schedule: Q01DX009 (ip), vehicle: saline 187 % of control | endpoint: mean survival time, dose: 20.0 mg/kg/injection, schedule: Q04DX003 (ip), vehicle: saline 152 % of control | endpoint: mean survival time, dose: 25.0 mg/kg/injection, schedule: Q01DX009 (ip), vehicle: saline 215 % of control and 233 % of control | endpoint: mean survival time, dose: 32.0 mg/kg/injection, schedule: Q01DX009 (ip), vehicle: saline 244 % of control | endpoint: mean survival time, dose: 32.0 mg/kg/injection, schedule: Q01DX009 (oral), vehicle: saline 163 % of control | endpoint: mean survival time, dose: 32.0 mg/kg/injection, schedule: Q01DX009 (sc), vehicle: saline 196 % of control | endpoint: mean survival time, dose: 37.5 mg/kg/injection, schedule: Q01DX008 (ip), vehicle: saline 169 % of control | endpoint: mean survival time, dose: 37.5 mg/kg/injection, schedule: Q01DX008 (oral), vehicle: saline 175 % of control | endpoint: mean survival time, dose: 40.0 mg/kg/injection, schedule: Q01DX007 (ip), vehicle: saline 204 % of control | endpoint: mean survival time, dose: 40.0 mg/kg/injection, schedule: Q01DX009 (ip), vehicle: saline 229 % of control | endpoint: mean survival time, dose: 40.0 mg/kg/injection, schedule: Q04DX003 (ip), vehicle: saline 152 % of control | endpoint: mean survival time, dose: 50.0 mg/kg/injection, schedule: Q01DX009 (ip), vehicle: saline 153 % of control and 166 % of control | endpoint: mean survival time, dose: 64.0 mg/kg/injection, schedule: Q01DX009 (ip), vehicle: saline 221 % of control | endpoint: mean survival time, dose: 64.0 mg/kg/injection, schedule: Q01DX009 (oral), vehicle: saline 176 % of control | endpoint: mean survival time, dose: 64.0 mg/kg/injection, schedule: Q03HX016 (ip), vehicle: saline 377 % of control | endpoint: mean survival time, dose: 75.0 mg/kg/injection, schedule: Q01DX008 (oral), vehicle: saline 202 % of control | endpoint: mean survival time, dose: 75.0 mg/kg/injection, schedule: Q04DX003 (ip), vehicle: saline 182 % of control | endpoint: mean survival time, dose: 80.0 mg/kg/injection, schedule: Q01DX007 (ip), vehicle: saline 161 % of control | endpoint: mean survival time, dose: 80.0 mg/kg/injection, schedule: Q04DX003 (ip), vehicle: saline 157 % of control | endpoint: mean survival time, dose: 128.0 mg/kg/injection, schedule: Q04DX003 (ip), vehicle: saline 163 % of control | endpoint: mean survival time, dose: 128.0 mg/kg/injection, schedule: Q04DX003 (oral), vehicle: saline 158 % of control | endpoint: mean survival time, dose: 150.0 mg/kg/injection, schedule: Q04DX003 (ip), vehicle: saline 151 % of control | endpoint: mean survival time, dose: 256.0 mg/kg/injection, schedule: Q04DX003 (oral), vehicle: saline 171 % of control | endpoint: mean survival time, dose: 300.0 mg/kg/injection, schedule: Q04DX003 (ip), vehicle: saline 239 % of control | endpoint: mean survival time, dose: 512.0 mg/kg/injection, schedule: Q01DX001 (sc), vehicle: saline 153 % of control | endpoint: mean survival time, dose: 512.0 mg/kg/injection, schedule: Q04DX003 (oral), vehicle: saline 206 % of control | endpoint: mean survival time, dose: 600.0 mg/kg/injection, schedule: Q01DX001 (ip), vehicle: saline 172 % of control | endpoint: mean survival time, dose: 600.0 mg/kg/injection, schedule: Q04DX003 (ip), vehicle: saline 259 % of control | endpoint: mean survival time, dose: 1024.0 mg/kg/injection, schedule: Q01DX001 (ip), vehicle: saline 161 % of control | endpoint: mean survival time, dose: 1024.0 mg/kg/injection, schedule: Q01DX001 (sc), vehicle: saline 239 % of control | endpoint: mean survival time, dose: 1024.0 mg/kg/injection, schedule: Q04DX003 (ip), vehicle: saline 286 % of control | endpoint: mean survival time, dose: 1024.0 mg/kg/injection, schedule: Q08DX002 (ip), vehicle: saline 250 % of control | endpoint: mean survival time, dose: 1200.0 mg/kg/injection, schedule: Q01DX001 (ip), vehicle: saline 183 % of control
inactive: endpoint: mean survival time, dose: 0.25 mg/kg/injection, schedule: Q01DX009 (ip), vehicle: saline 121 % of control | endpoint: mean survival time, dose: 0.5 mg/kg/injection, schedule: Q01DX009 (sc), vehicle: saline 97 % of control | endpoint: mean survival time, dose: 2.0 mg/kg/injection, schedule: Q01DX009 (sc), vehicle: saline 121 % of control | endpoint: mean survival time, dose: 4.0 mg/kg/injection, schedule: Q08DX002 (ip), vehicle: saline 106 % of control | endpoint: mean survival time, dose: 16.0 mg/kg/injection, schedule: Q08DX002 (ip), vehicle: saline 114 % of control | endpoint: mean survival time, dose: 32.0 mg/kg/injection, schedule: Q03HX008 (ip), vehicle: saline 120 % of control | endpoint: mean survival time, dose: 64.0 mg/kg/injection, schedule: Q03HX024 (oral), vehicle: saline 90 % of control | endpoint: mean survival time, dose: 64.0 mg/kg/injection, schedule: Q08DX002 (ip), vehicle: saline 116 % of control | endpoint: mean survival time, dose: 80.0 mg/kg/injection, schedule: Q01DX009 (ip), vehicle: saline 117 % of control | endpoint: mean survival time, dose: 100.0 mg/kg/injection, schedule: Q01DX009 (ip), vehicle: saline 113 % of control and 115 % of control | endpoint: mean survival time, dose: 128.0 mg/kg/injection, schedule: Q01DX001 (ip), vehicle: saline 120 % of control | endpoint: mean survival time, dose: 128.0 mg/kg/injection, schedule: Q01DX001 (sc), vehicle: saline 123 % of control | endpoint: mean survival time, dose: 128.0 mg/kg/injection, schedule: Q01DX009 (ip), vehicle: saline 114 % of control | endpoint: mean survival time, dose: 128.0 mg/kg/injection, schedule: Q01DX009 (sc), vehicle: saline 88 % of control | endpoint: mean survival time, dose: 150.0 mg/kg/injection, schedule: Q01DX001 (ip), vehicle: saline 110 % of control | endpoint: mean survival time, dose: 150.0 mg/kg/injection, schedule: Q01DX001 (oral), vehicle: saline 115 % of control | endpoint: mean survival time, dose: 200.0 mg/kg/injection, schedule: Q01DX009 (ip), vehicle: saline 101 % of control | endpoint: mean survival time, dose: 256.0 mg/kg/injection, schedule: Q01DX009 (oral), vehicle: saline 109 % of control | endpoint: mean survival time, dose: 300.0 mg/kg/injection, schedule: Q01DX001 (oral), vehicle: saline 115 % of control | endpoint: mean survival time, dose: 1024.0 mg/kg/injection, schedule: Q04DX003 (oral), vehicle: saline 122 % of control

CCCCC(CSC#N)SC#N (stereo not drawn)
inactive: endpoint: mean survival time, dose: 6.25 mg/kg/injection, schedule: Q04DX002 (ip), vehicle: saline with Tween-80 92 % of control | endpoint: mean survival time, dose: 12.5 mg/kg/injection, schedule: Q04DX002 (ip), vehicle: saline with Tween-80 88 % of control

Cc1ccc(N2CCOC2=O)cc1N1CCOC1=O
inactive: endpoint: mean survival time, dose: 25.0 mg/kg/injection, schedule: Q01DX009 (ip), vehicle: other 100 % of control | endpoint: mean survival time, dose: 50.0 mg/kg/injection, schedule: Q01DX009 (ip), vehicle: other 105 % of control | endpoint: mean survival time, dose: 100.0 mg/kg/injection, schedule: Q01DX009 (ip), vehicle: other 102 % of control

C#CCNC1=C(C)C(=O)C2=C(C1=O)[C@H](COC(N)=O)[C@]1(OC)[C@@H]3N[C@@H]3CN21
active: endpoint: mean survival time, dose: 24.0 mg/kg/injection, schedule: Q01DX001 (ip), vehicle: distilled water + Tween-80 186 % of control | endpoint: median survival time, dose: 6.0 mg/kg/injection, schedule: Q01DX009 (ip), vehicle: distilled water + Tween-80 166 % of control | endpoint: median survival time, dose: 6.25 mg/kg/injection, schedule: Q01DX009 (ip), vehicle: distilled water + Tween-80 178 % of control
inactive: endpoint: mean survival time, dose: 1.5 mg/kg/injection, schedule: Q01DX001 (ip), vehicle: distilled water + Tween-80 112 % of control | endpoint: mean survival time, dose: 3.0 mg/kg/injection, schedule: Q01DX001 (ip), vehicle: distilled water + Tween-80 120 % of control and 102 % of control | endpoint: mean survival time, dose: 6.0 mg/kg/injection, schedule: Q01DX001 (ip), vehicle: distilled water + Tween-80 110 % of control | endpoint: mean survival time, dose: 48.0 mg/kg/injection, schedule: Q01DX001 (ip), vehicle: distilled water + Tween-80 87 % of control | endpoint: median survival time, dose: 12.5 mg/kg/injection, schedule: Q01DX009 (ip), vehicle: distilled water + Tween-80 101 % of control | endpoint: median survival time, dose: 25.0 mg/kg/injection, schedule: Q01DX009 (ip), vehicle: distilled water + Tween-80 92 % of control

COP(=O)(OC)OCC1OC(c2n[nH]c(C(N)=O)c2O)C(O)C1O (stereo not drawn)
inactive: endpoint: median survival time, dose: 8.13 mg/kg/injection, schedule: Q01DX005 (ip), vehicle: saline 100 % of control | endpoint: median survival time, dose: 16.25 mg/kg/injection, schedule: Q01DX005 (ip), vehicle: saline 102 % of control | endpoint: median survival time, dose: 32.5 mg/kg/injection, schedule: Q01DX005 (ip), vehicle: saline 101 % of control | endpoint: median survival time, dose: 65.0 mg/kg/injection, schedule: Q01DX005 (ip), vehicle: saline 111 % of control | endpoint: median survival time, dose: 130.0 mg/kg/injection, schedule: Q01DX005 (ip), vehicle: saline 111 % of control
